Measurements from PubChem BioAssay AID1963961 (Molecular Pharmacology Branch, DTP, NCI, 2024).

Tested on: K98450-129-R-PDC multicell spheroids, viability
Assay: Anticancer human tumor K98450-129-R-PDC patient-derived colon adenocarcinoma cell line growth inhibition [PI3K]
Conditions: for IC50: curve of first compound; for viability, T/C: stronger effect = lower value
From the text: Combinatorial screen of targeted agents with the PI3K inhibitors inavolisib, alpelisib, duvelisib, and copanlisib in multi-cell type tumor spheroids
A high-throughput screen of multi-cell type tumor spheroids was designed to identify active combinations of targeted small molecules and PI3K pathway inhibitors. Complex spheroids include a stromal component modeled by human endothelial cells (HUVEC) and fibroblasts modeled by human mesenchymal stem cells (MSCs). The concentration ranges selected for each drug and investigational agent were based upon clinically achievable concentrations if the clinical Cmax of the agent was known.
Compounds. The drugs and investigational agents: inavolisib (NSC800729), alpelisib (NSC765974), duvelisib (NSC772469), copanlisib (NSC816437), ipatasertib (NSC767898), afuresertib (NSC778305), talazoparib (NSC767125), sapanisertib (NSC764658), selumetinib (NSC741078), tovorafenib (DAY101, NSC766906), vemurafenib (NSC761431), ravoxertinib (NSC781343), sotorasib (NSC818433), MRTX1133 (NSC 836407), abemaciclib (NSC 768073), palbociclib (NSC758247), venetoclax (NSC 766270), SY5609 (NSC837396), enzalutamide (NSC755605), and darolutamide (NSC825331), were obtained from the National Cancer Institute (NCI) Developmental Therapeutics Program Chemical Repository. The FDA-approved anticancer drug set is available from the NCI Developmental Therapeutics Program. […] The stock solutions were prepared in dimethyl sulfoxide (DMSO, Sigma-Aldrich, St. Louis, MO, cat. D2650) at 800-fold the tested concentration and stored at -70 degrees C prior to their use. All drugs and investigational agents were tested over a range starting from a high concentration at or near the clinical Cmax and decreasing in half-log increments. If the clinical Cmax for an agent had not been determined, the highest concentration tested was 10 microM.
Cell Culture. All cells were maintained in an incubator at 37 degrees C and 5% CO2 with 95% humidity. The PDC lines were cultured according to standard operating procedures established by the NCI PDMR (https://pdmr.cancer.gov/sops/default.htm). All PDCs were thawed and cultured in Matrigel-coated flasks prepared with a working solution of 1X Ham's F-12 nutrient mix, without supplementation (Invitrogen, Waltham, MA, cat. 11765054), 100 U/mL penicillin-streptomycin (Invitrogen, cat. 15140122), and 2.5% Matrigel (Corning Inc., Corning, NY, cat. 354248) for the first three passages. The 354836-022-R-J1-PDC, 475296-252-R-J1-PDC, and 997726-040-R-J2-PDC lines were cultured in 6A media, which includes advanced DMEM/F-12 (Thermo Fisher Scientific, cat. 12634028), 10 mM HEPES (Thermo Fisher Scientific, cat. 15630080), 1X GlutaMAX supplement (Thermo Fisher Scientific, cat. 35050061), 0.1 mg/mL primocin (InvivoGen, San Diego, CA, cat. ant-pm-2), 10% defined fetal bovine serum, heat inactivated (HyClone Laboratories Inc., Logan, UT, cat. SH30070.03HI), 50% L-WRN conditioned media (ATCC, cat. CRL-3276), 1.25 mM N-Acetyl-L-cysteine (Sigma-Aldrich, cat. A9165), 10 mM nicotinamide (Sigma-Aldrich, cat. N0636), 1X B-27 supplement (Thermo Fisher Scientific, cat. 17504044), 1X N-2 supplement (Thermo Fisher Scientific, cat. 17502048), and 10 microM Y-27632 dihydrochloride (Tocris Bioscience, Bristol, United Kingdom, cat. 1254). The 624824-186-R-J2-PDC line was cultured in 6C/Colon 1B media, which includes all 6A media components plus 50 ng/mL human EGF recombinant protein (Thermo Fisher Scientific, cat. PHG0311). […]

[1] = second compound 0.00316 µM, first compound 0.0316 µM
[2] = second compound 0.00316 µM, first compound 0.1 µM
[3] = second compound 0.00316 µM, first compound 0.316 µM
[4] = second compound 0.00316 µM, first compound 1 µM
[5] = second compound 0.00316 µM, first compound 3.16 µM
[6] = second compound 0.00316 µM, first compound 10 µM
[7] = second compound 0.01 µM, first compound 0.0316 µM
[8] = second compound 0.01 µM, first compound 0.1 µM
[9] = second compound 0.01 µM, first compound 0.316 µM
[10] = second compound 0.01 µM, first compound 1 µM
[11] = second compound 0.01 µM, first compound 3.16 µM
[12] = second compound 0.01 µM, first compound 10 µM
[13] = second compound 0.0316 µM, first compound 0.0316 µM
[14] = second compound 0.0316 µM, first compound 0.1 µM
[15] = second compound 0.0316 µM, first compound 0.316 µM
[16] = second compound 0.0316 µM, first compound 1 µM
[17] = second compound 0.0316 µM, first compound 3.16 µM
[18] = second compound 0.0316 µM, first compound 10 µM
[19] = second compound 0.1 µM, first compound 0.0316 µM
[20] = second compound 0.1 µM, first compound 0.1 µM
[21] = second compound 0.1 µM, first compound 0.316 µM
[22] = second compound 0.1 µM, first compound 1 µM
[23] = second compound 0.1 µM, first compound 3.16 µM
[24] = second compound 0.1 µM, first compound 10 µM
[25] = second compound 0.316 µM, first compound 0.0316 µM
[26] = second compound 0.316 µM, first compound 0.1 µM
[27] = second compound 0.316 µM, first compound 0.316 µM
[28] = second compound 0.316 µM, first compound 1 µM
[29] = second compound 0.316 µM, first compound 3.16 µM
[30] = second compound 0.316 µM, first compound 10 µM
[31] = second compound 1 µM, first compound 0.0316 µM
[32] = second compound 1 µM, first compound 0.1 µM
[33] = second compound 1 µM, first compound 0.316 µM
[34] = second compound 1 µM, first compound 1 µM
[35] = second compound 1 µM, first compound 3.16 µM
[36] = second compound 1 µM, first compound 10 µM
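Note: spheroids exposed to agents for seven days before read-out.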

`CNC(=O)c1ccc(N2C(=S)N(c3ccc(C#N)c(C(F)(F)F)c3)C(=O)C2(C)C)cc1F` + CC(Nc1ccc2c(c1)OCCn1cc(N3C(=O)OCC3C(F)F)nc1-2)C(N)=O showed an IC50 (second compound 0.00316 µM) of over 10 µM, an IC50 (second compound 0.01 µM) of over 10 µM and an IC50 (second compound 0.0316 µM) of over 10 µM. For the same compound, the IC50 (second compound 0.1 µM) was over 10 µM, the IC50 (second compound 0.316 µM) was over 10 µM and the IC50 (second compound 1 µM) was over 10 µM. The viability, T/C [1] was 108%, the viability, T/C [2] was 102% and the viability, T/C [3] was 107%. For the same compound, the viability, T/C [4] was 107%, the viability, T/C [5] was 110% and the viability, T/C [6] was 120%. For the same compound, the viability, T/C [7] was 115%, the viability, T/C [8] was 100% and the viability, T/C [9] was 107%. For the same compound, the viability, T/C [10] was 101%, the viability, T/C [11] was 108% and the viability, T/C [12] was 117%. For the same compound, the viability, T/C [13] was 106%, the viability, T/C [14] was 101% and the viability, T/C [15] was 94.5%. It also gave a viability, T/C [16] of 103%, a viability, T/C [17] of 112% and a viability, T/C [18] of 112%. For the same compound, the viability, T/C [19] was 94.1%, the viability, T/C [20] was 93.9% and the viability, T/C [21] was 103%. It also gave a viability, T/C [22] of 98.2%, a viability, T/C [23] of 105% and a viability, T/C [24] of 110%. It also gave a viability, T/C [25] of 94.7%, a viability, T/C [26] of 96.8% and a viability, T/C [27] of 99.6%. The viability, T/C [28] was 96.8%, the viability, T/C [29] was 102% and the viability, T/C [30] was 102%. For the same compound, the viability, T/C [31] was 83.9%, the viability, T/C [32] was 100% and the viability, T/C [33] was 94.9%. It also gave a viability, T/C [34] of 92.1%, a viability, T/C [35] of 98.6% and a viability, T/C [36] of 106%.
Compound `CNC(=O)c1ccc(N2C(=S)N(c3ccc(C#N)c(C(F)(F)F)c3)C(=O)C2(C)C)cc1F` + COc1c(OCCCN2CCOCC2)ccc2c3n(c(=NC(=O)c4cnc(N)nc4)nc12)CCN3 has an IC50 (second compound 0.00316 µM) of over 10 µM, an IC50 (second compound 0.01 µM) of over 10 µM and an IC50 (second compound 0.0316 µM) of over 10 µM. The IC50 (second compound 0.1 µM) was over 10 µM, the IC50 (second compound 0.316 µM) was over 10 µM and the IC50 (second compound 1 µM) was over 10 µM. For the same compound, the viability, T/C [1] was 108%, the viability, T/C [2] was 102% and the viability, T/C [3] was 88.7%. It also gave a viability, T/C [4] of 97.1%, a viability, T/C [5] of 108% and a viability, T/C [6] of 101%. For the same compound, the viability, T/C [7] was 98.6%, the viability, T/C [8] was 107% and the viability, T/C [9] was 80.1%. The viability, T/C [10] was 77.8%, the viability, T/C [11] was 100% and the viability, T/C [12] was 98.8%. The viability, T/C [13] was 96.4%, the viability, T/C [14] was 96.9% and the viability, T/C [15] was 84.4%. For the same compound, the viability, T/C [16] was 81.5%, the viability, T/C [17] was 95.7% and the viability, T/C [18] was 68.1%. It also gave a viability, T/C [19] of 67.1%, a viability, T/C [20] of 83.2% and a viability, T/C [21] of 72.6%. For the same compound, the viability, T/C [22] was 77%, the viability, T/C [23] was 78.7% and the viability, T/C [24] was 70.1%. For the same compound, the viability, T/C [25] was 67.4%, the viability, T/C [26] was 65.6% and the viability, T/C [27] was 73.5%. It also gave a viability, T/C [28] of 58.5%, a viability, T/C [29] of 79.1% and a viability, T/C [30] of 39.8%. It also gave a viability, T/C [31] of 43.6%, a viability, T/C [32] of 58.4% and a viability, T/C [33] of 54.2%. For the same compound, the viability, T/C [34] was 50.1%, the viability, T/C [35] was 57.2% and the viability, T/C [36] was 65.5%.
